Assays:
C57BL/6J mice [1] = assay: Renal fibrosis: real-time PCR analysis of renal tissues; type: in vivo; settings: renal tissue, treatment group vs diabetes group, 12 weeks
Description: Total RNA was isolated using Trizol reagent (Invitrogen) according to the manufacturer's instruction. The total RNA isolate was used for real-time PCR.
Briefly, as described in Example 10, diabetes was induced, and 1-(pyridin-2-yl)-3-phenyl-4-propyl-1H-pyrazol-5-ol.HCl, the compound of Example 1 of the present invention, was administered to the mice that were sacrificed 12 weeks later. Then, renal tissues were excised from the mice and homogenized with a predetermined amount (500 μl) of Trizol reagent (Invitrogen), followed by centrifuging the homogenate (13,000 rpm, 10 min). The supernatant was reacted with 200 μl of chloroform for 15 min and centrifuged. The total RNA was precipitated with isopropyl alcohol, and washed with 75% ethyl alcohol before use in experiments. From 2 μg of total RNA, cDNA was synthesized using a reverse transcription kit (Applied Biosystems), and selective mRNA was quantitatively analyzed in ABI 7300 real-time PCR thermal cycler (Applied Biosystems) with the aid of SYBR Green PCR Master Mix kit according to the manufacturer's instruction. Each experiment was run in duplicate with 20 μl. For correct quantitation and identification of results from a single product, a standard curve and a dissociation curve were employed. PCR was performed with 40 thermal cycles of 95° C. for 15 sec and 56° C. for 1 min.
In FIG. 3, the control (WT) stands for a group in which type 1 diabetes mellitus was not induced, the diabetes group (DM) for a group in which type 1 diabetes mellitus was induced, and the treatment group (DM+compound of Example 1) for a group that was treated with the compound of Example 1 after introduction of type 1 diabetes mellitus. Data of FIG. 3 are expressed as mean±standard error (SE) from 8 to 12 mice per group. Statistic comparison among the groups was analyzed by ANOVA and Fisher's least significant difference test, with significance at p<0.05. *P<0.05 vs. WT, †P<0.05 vs. DM.

C57BL/6J mice [2] = assay: Glomerular hypertrophy and glomerular mesangial expansion (PAS staining of kidney); type: in vivo; settings: treatment group vs diabetes group, 10 mg/kg/day oral, 12 weeks
Description: For morphological analysis for examining glomerular hypertrophy and glomerular mesangial cell formation, a staining method was used as disclosed previously (Lee E A, Seo J Y, Jiang Z, Yu M R, Kwon M K, Ha H, Lee H B: Reactive oxygen species mediate high glucose-induced plasminogen activator inhibitor-1 up-regulation in mesangial cells and in diabetic kidney. Kidney Int. 67:1762-71, 2005). As described in Example 10, diabetes was induced in mice that were then treated with 1-(pyridin-2-yl)-3-phenyl-4-propyl-1H-pyrazol-5-ol.HCl, the compound of Example 1, and scarified 12 weeks later. After cardiac perfusion with 0.1 M PBS (phosphate-buffered saline), tissue fixation was performed overnight with 2% PLP (paraformaldehyde-lysine-periodate). […] In one renal tissue, 30 glomeruli were scanned, and measured for size and mesangial cell formation, using Image-Pro Plus 4.5 Software (MEDIA CYBERNETICS). The glomerular size was calculated according to Equation 1. […] Data of FIG. 1 are expressed as mean±standard error (SE) from 8 to 12 mice per group. Statistic comparison among the groups was analyzed by ANOVA and Fisher's least significant difference test, with significance at p<0.05. *P<0.05 vs. WT, †P<0.05 vs DM.

Structure (SMILES): CCCc1c(-c2ccccc2)nn(-c2ccccn2)c1O.Cl [Compound 18-278, 1-(pyridin-2-yl)-3-phenyl-4-propyl-1H-pyrazol-5-ol.HCl]
- expression level of Collagen Iα1 mRNA to 18S rRNA (C57BL/6J mice [1]): significantly decreased
- expression level of F4/80 mRNA to 18S rRNA (C57BL/6J mice [1]): significantly decreased
- expression level of TGF-β1 mRNA to 18S rRNA (C57BL/6J mice [1]): significantly decreased
- expression level of collagen IV mRNA to 18S rRNA (C57BL/6J mice [1]): significantly decreased
- expression level of fibronectin mRNA to 18S rRNA (C57BL/6J mice [1]): significantly decreased
- glomerular mesangial expansion (fractional mesangial area) (C57BL/6J mice [2]): reduced to the level of the control
- glomerular size (glomerular volume) (C57BL/6J mice [2]): significantly smaller than that of the diabetes group
